{
  "source": "patent US20210181185A1",
  "about": "“DENDRITIC CELL RECRUITMENT FROM BLOOD TO BRAIN IN NEURODEGENERATIVE DISEASE” (priority 2017, published 2021)",
  "origin": "cited, not measured here",
  "settings": "free DiO",
  "data": [
    {"smiles": "CCCCCCCCCCCCCCCCCCN1/C(=C\\C=C\\c2oc3ccccc3[n+]2CCCCCCCCCCCCCCCCCC)Oc2ccccc21.[O-][Cl+3]([O-])([O-])[O-]", "note": "[DiO]", "values": [
      {"measurement": "Clearance of free dye from blood", "value": "rapidly cleared from blood"}
    ]}
  ]
}
